Measured values taken from US9273092B2, “Selective binding compounds” (RIOGIN Corporation, priority 2011, dated 2016).

Molecular target: hSA (Homo sapiens, UniProt P02768)
Assay: hSA binding assay (hSA-coated microtiter plate, streptavidin-polyHRP/ABTS, OD 405 nm)
Conditions: for Bmax: given only for compounds with an Exp 2 value
Procedure: hSA binding assay. Microtiter 96 well plate is coated, overnight at 4° C., using […] of a solution of hSA in PBS ([…]). Plate is washed with PBS and blocked, for 1 hours, using 150 ml, per well, of a 10% solution of Tween 20 in water. After 1 hour the wells are washed with PBS. The hSA binders tested are dissolved in PBS, 100 ml of the tested solutions are then added in the well and incubated for 2 hours. After 2 hours, the solution are discarded and the wells are washed using PBS, 0.1% Tween 20. 100 ml of a solution of streptavidin-polyHRP in PBS 1.375% casein is added to the wells and incubated for 1 more hours. Finally wells are washed with PBS, 0.1% Tween 20, and 100 ml ABTS in phosphate-citrate buffer with sodium perborate is added. After a few minutes OD are read at 405 nm.
A plurality of compounds according to the invention were prepared. All of the compounds contained the Cys-Pro-Cys moiety. These compounds and an assay control were tested using the above procedure. Some compounds were tested twice (Exp 1 and Exp 2).

Sequence of hSA (P02768 25-609): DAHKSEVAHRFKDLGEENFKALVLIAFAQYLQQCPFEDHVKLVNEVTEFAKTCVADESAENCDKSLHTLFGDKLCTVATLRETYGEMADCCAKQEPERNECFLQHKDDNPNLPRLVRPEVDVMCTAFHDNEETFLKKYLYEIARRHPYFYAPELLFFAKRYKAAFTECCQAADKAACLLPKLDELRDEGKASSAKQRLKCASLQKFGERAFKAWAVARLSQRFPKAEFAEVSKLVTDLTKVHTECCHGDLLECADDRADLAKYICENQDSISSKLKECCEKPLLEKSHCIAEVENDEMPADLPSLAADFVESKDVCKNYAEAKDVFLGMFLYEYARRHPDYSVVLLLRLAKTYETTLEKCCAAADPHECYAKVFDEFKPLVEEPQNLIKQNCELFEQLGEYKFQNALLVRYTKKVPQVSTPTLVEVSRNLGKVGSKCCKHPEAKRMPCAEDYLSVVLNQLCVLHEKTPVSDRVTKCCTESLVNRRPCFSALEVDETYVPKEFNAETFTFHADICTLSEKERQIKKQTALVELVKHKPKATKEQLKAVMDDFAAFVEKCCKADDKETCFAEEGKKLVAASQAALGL

Sequence	Binding, Exp 1	Binding, Exp 2	Bmax
RLIEDVCPCLW [Compound 54, RLIEDV-LW, "-" represents cysteine-proline-cysteine]	0.3336		
KLLEDICPCLW [Compound 9, KLLEDI-LW, "-" represents cysteine-proline-cysteine]	0.04197		
RLIEDQCPCLW [Compound 16, RLIEDQ-LW, "-" represents cysteine-proline-cysteine]	0.06092		
RLEEDICPCLW [Compound 17, RLEEDI-LW, "-" represents cysteine-proline-cysteine]	0.0625		
KLIEDICPCAW [Compound 25, KLIEDI-AW, "-" represents cysteine-proline-cysteine]	0.08281		
RLIQDICPCLW [Compound 18, RLIQDI-LW, "-" represents cysteine-proline-cysteine]	0.06261		
KLIEDQCPCLW [Compound 55, KLIEDQ-LW, "-" represents cysteine-proline-cysteine]	0.5209		
RLIEDICPCFW [Compound 10, RLIEDI-FW, "-" represents cysteine-proline-cysteine]	0.04544		
RLIEDICPCVW [Compound 52, RLIEDI-VW, "-" represents cysteine-proline-cysteine]	0.3108		
RLIEDICPCAW [Compound 59, RLIEDI-AW, "-" represents cysteine-proline-cysteine]	1.031		
RLIADICPCLW [Compound 4, RLIADI-LW, "-" represents cysteine-proline-cysteine]	0.03473	0.1216	1.036
RLIEDICPCTW [Compound 32, RLIEDI-TW, "-" represents cysteine-proline-cysteine]	0.1126		
RIIEDICPCLW [Compound 40, RIIEDI-LW, "-" represents cysteine-proline-cysteine]	0.1632	0.1166	0.6826
KLIEDECPCLW [Compound 11, KLIEDE-LW, "-" represents cysteine-proline-cysteine]	0.04808		
KLIEVICPCLW [Compound 5, KLIEVI-LW, "-" represents cysteine-proline-cysteine]	0.03868		
RLIENICPCLW [Compound 14, RLIENI-LW, "-" represents cysteine-proline-cysteine]	0.05331		
RLIEDTCPCLW [Compound 27, RLIEDT-LW, "-" represents cysteine-proline-cysteine]	0.08956		
KLIEDVCPCLW [Compound 56, KLIEDV-LW, "-" represents cysteine-proline-cysteine]	0.5311		
KLIEDICPCLW [Compound 26, KLIEDI-LW, "-" represents cysteine-proline-cysteine]	0.08742		
RLIDDICPCLW [Compound 6, RLIDDI-LW, "-" represents cysteine-proline-cysteine]	0.03897	0.2179	1.256
KVIEDICPCLW [Compound 64, KVIEDI-LW, "-" represents cysteine-proline-cysteine]	2.575	0.1137	0.3906
KLIEDICPCLH [Compound 23, KLIEDI-LH, "-" represents cysteine-proline-cysteine]	0.07161		
RLIQICPCLW [Compound 97, RLIQI-LW, "-" represents cysteine-proline-cysteine]		0.1909	0.8584
KLIQDICPCLW [Compound 51, KLIQDI-LW, "-" represents cysteine-proline-cysteine]	0.3066	0.1771	1.048
KQIEDICPCLW [Compound 47, KQIEDI-LW, "-" represents cysteine-proline-cysteine]	0.2411	0.581	1.4
KLIEDICPCLQ [Compound 42, KLIEDI-LQ, "-" represents cysteine-proline-cysteine]	0.1651		
KLIEDICPCFW [Compound 30, KLIEDI-FW, "-" represents cysteine-proline-cysteine]	0.1033		
RLIEDICPCLV [Compound 43, RLIEDI-LV, "-" represents cysteine-proline-cysteine]	0.1701		
